In US20140193827A1 (TEVA PHARMACEUTICAL INDUSTRIES, LTD., priority 2013, published 2014):

System: GA-primed murine splenocytes
Experiment: Tolerance method for assessing process variability
[1] = microarray, splenocytes activated 24 hours

## glatiramer acetate [GA]
[1]
  AVG expression of 1110067B18RIK, probe ILMN_2514723: 8.228
  AVG expression of 1190002H23RIK, probe ILMN_2593774: 7.583
  AVG expression of 1700129I04RIK, probe ILMN_1224390: 6.752
  AVG expression of 2810485I05RIK, probe ILMN_2695217: 10.37
  AVG expression of A130087I02RIK, probe ILMN_1232144: 6.482
  AVG expression of A630077B13RIK, probe ILMN_1249864: 9.099
  AVG expression of A930005H10RIK, probe ILMN_1250135: 10.04
  AVG expression of ADA, probe ILMN_2686132: 7.525
  AVG expression of AI467606, probe ILMN_1213645: 10.38
  AVG expression of ANKRD11, probe ILMN_2727235: 9.978
  AVG expression of APPL2, probe ILMN_1219978: 7.742
  AVG expression of ARHGAP4, probe ILMN_2677876: 11.38
  AVG expression of ARRB2, probe ILMN_2700848: 9.049
  AVG expression of AVIL, probe ILMN_2753149: 6.407
  AVG expression of B3GNT7, probe ILMN_2655571: 6.563
  AVG expression of B230345P09RIK, probe ILMN_2469190: 8.997
  AVG expression of BATF3, probe ILMN_2526739: 6.73
  AVG expression of BC038822, probe ILMN_2804103: 7.38
  AVG expression of BC065085, probe ILMN_2974737: 7.582
  AVG expression of BEX4, probe ILMN_3118584: 6.717
  AVG expression of BLVRB, probe ILMN_2770917: 9.003
  AVG expression of C3, probe ILMN_2759484: 8.352
  AVG expression of C130078N17RIK, probe ILMN_2522495: 10.34
  AVG expression of C230082I21RIK, probe ILMN_1248824: 8.744
  AVG expression of C430002D13RIK, probe ILMN_2571616: 7.951
  AVG expression of CCND2, probe ILMN_1225932: 8.425
  AVG expression of CCNG1, probe ILMN_2710229: 8.72
  AVG expression of CCR6, probe ILMN_2888448: 11.42
  AVG expression of CD44, probe ILMN_1223697: 10.12
  AVG expression of CHD3, probe ILMN_2524861: 7.978
  AVG expression of CHKA, probe ILMN_3026397: 12.08
  AVG expression of CLASP1, probe ILMN_1225769: 7.92
  AVG expression of CLIC4, probe ILMN_2599018: 7.206
  AVG expression of CLSPN, probe ILMN_2858359: 8.857
  AVG expression of CRTC3, probe ILMN_1248891: 8.262
  AVG expression of CSNK1G3, probe ILMN_2793946: 9.73
  AVG expression of CYP51, probe ILMN_2688075: 9.707
  AVG expression of DEADC1, probe ILMN_2705097: 9.246
  AVG expression of DGKZ, probe ILMN_1239607: 8.46
  AVG expression of DLM1-PENDING, probe ILMN_1218547: 6.869
  AVG expression of DYRK2, probe ILMN_3138439: 6.905
  AVG expression of E2F3, probe ILMN_2743503: 7.726
  AVG expression of EG433016, probe ILMN_2995688: 8.853
  AVG expression of ENTPD5, probe ILMN_3149143: 7.434
  AVG expression of F2RL1, probe ILMN_2769567: 6.312
  AVG expression of FBXO4, probe ILMN_2772920: 9.934
  AVG expression of FOSL2, probe ILMN_1252481: 8.057
  AVG expression of FOXP3, probe ILMN_2917180: 7.709
  AVG expression of FSCN1, probe ILMN_2630605: 8.879
  AVG expression of FXYD5, probe ILMN_1235493: 10.05
  AVG expression of GAB3, probe ILMN_3133748: 7.208
  AVG expression of GRN, probe ILMN_2595973: 10.66
  AVG expression of H3F3B, probe ILMN_1231168: 8.812
  AVG expression of HAMP, probe ILMN_1236304: 6.455
  AVG expression of HEG1, probe ILMN_2600022: 7.682
  AVG expression of HIST2H2AA1, probe ILMN_2751948: 7.127
  AVG expression of HTT, probe ILMN_2672091: 7.448
  AVG expression of IFITM1, probe ILMN_2814484: 7.066
  AVG expression of IFNGR2, probe ILMN_2784272: 9.806
  AVG expression of IGK-V5, probe ILMN_2631259: 11.21
  AVG expression of IL1A, probe ILMN_1227018: 8.103
  AVG expression of IL13, probe ILMN_2927131: 6.7
  AVG expression of IRF8, probe ILMN_2673369: 10.92
  AVG expression of KIF1B, probe ILMN_2587761: 6.394
  AVG expression of LDHA, probe ILMN_1257965: 12.99
  AVG expression of LOC386005, probe ILMN_2538029: 10.77
  AVG expression of LOC637711, probe ILMN_1239601: 8.053
  AVG expression of LOC677643, probe ILMN_1225733: 9.931
  AVG expression of LOC100043671, probe ILMN_1258600: 9.958
  AVG expression of LOC100046496, probe ILMN_1229263: 10.5
  AVG expression of LOC100046793, probe ILMN_2469743: 12
  AVG expression of LOC100047316, probe ILMN_1215825: 8.765
  AVG expression of LY78, probe ILMN_2585533: 7.951
  AVG expression of MSH5, probe ILMN_1241923: 6.819
  AVG expression of NFAT5, probe ILMN_2612448: 9.617
  AVG expression of NKG7, probe ILMN_1217855: 9.69
  AVG expression of PEA15, probe ILMN_2624938: 8.032
  AVG expression of PEX11C, probe ILMN_2467365: 6.162
  AVG expression of RABAC1, probe ILMN_1244857: 10.79
  AVG expression of RDM1, probe ILMN_1218934: 9.296
  AVG expression of RFC3, probe ILMN_2543834: 7.31
  AVG expression of RNF167, probe ILMN_2892856: 9.181
  AVG expression of RUNDC3B, probe ILMN_2660596: 7.1822
  AVG expression of SCN4A, probe ILMN_2814847: 7.299
  AVG expression of SDF2L1, probe ILMN_1221943: 9.843
  AVG expression of SERPINA3H, probe ILMN_2889832: 7.95
  AVG expression of SGCB, probe ILMN_1255256: 7.292
  AVG expression of SH3RF1, probe ILMN_2602597: 7.302
  AVG expression of SLC25A1, probe ILMN_2619846: 8.032
  AVG expression of SLCO3A1, probe ILMN_2663230: 8.007
  AVG expression of SMOX, probe ILMN_2597030: 8.19
  AVG expression of SPN, probe ILMN_2574982: 6.823
  AVG expression of STK4, probe ILMN_3004142: 11.07
  AVG expression of TARDBP, probe ILMN_3093089: 8.366
  AVG expression of TBCD, probe ILMN_2891506: 9.516
  AVG expression of TNF, probe ILMN_2899863: 8.846
  AVG expression of TNFAIP3, probe ILMN_1252202: 9.205
  AVG expression of TNIP1, probe ILMN_2417863: 10.34
  AVG expression of UBAC2, probe ILMN_2484838: 8.614
  AVG expression of UBAC2, probe ILMN_2949605: 10.08
  AVG expression of UBE2L6, probe ILMN_2431619: 8.561
  AVG expression of UCHL5, probe ILMN_1240153: 8.74
  AVG expression of VAMP4, probe ILMN_2516348: 8.312
  AVG expression of WDR68, probe ILMN_2546073: 7.546
  AVG expression of ZBP1, probe ILMN_1228653: 7.444
Probe IIMN_2700166
  AVG expression CCND2: 11.38
Probe ILMN_1212653
  AVG expression RFTN2: 7.109
Probe ILMN_1212982
  AVG expression ZFP318: 9.704
Probe ILMN_1213609
  AVG expression TXNIP: 11.89
Probe ILMN_1213954
  AVG expression SGK1: 9.667
Probe ILMN_1214071
  AVG expression IFITM1: 11.55
Probe ILMN_1214294
  AVG expression SNX29: 7.713
Probe ILMN_1214783
  AVG expression A530050E01RIK: 7.616
Probe ILMN_1214841
  AVG expression IL24: 7.762
Probe ILMN_1214998
  AVG expression HSD11B1: 8.421
Probe ILMN_1215796
  AVG expression LOC100046608: 7.035
Probe ILMN_1215862
  AVG expression CXCL9: 9.757
Probe ILMN_1216042
  AVG expression APOE: 7.5268
Probe ILMN_1216313
  AVG expression STIM1: 8.348
Probe ILMN_1217102
  AVG expression TPCN1: 8.543
Probe ILMN_1217180
  AVG expression IFITM1: 11.85
Probe ILMN_1217389
  AVG expression PKIB: 11.19
Probe ILMN_1217408
  AVG expression PRKACB: 11.88
Probe ILMN_1217629
  AVG expression ITGAE: 7.553
Probe ILMN_1217723
  AVG expression STAU2: 8.737
Probe ILMN_1217899
  AVG expression ITK: 7.055
Probe ILMN_1217913
  AVG expression D230007K08RIK: 9.225
Probe ILMN_1218036
  AVG expression SCO1: 9.072
Probe ILMN_1218037
  AVG expression TMIE: 8.752
Probe ILMN_1218181
  AVG expression IFITM6: 6.28
Probe ILMN_1218240
  AVG expression CD69: 11.83
Probe ILMN_1218525
  AVG expression IL18R1: 7.946
Probe ILMN_1218533
  AVG expression A630054M16RIK: 8.828
Probe ILMN_1218717
  AVG expression LOC385615: 8.213
Probe ILMN_1218799
  AVG expression EMB: 9.501
Probe ILMN_1219017
  AVG expression 5031436O03RIK: 7.811
Probe ILMN_1219860
  AVG expression LTK: 7.398
Probe ILMN_1219896
  AVG expression LOC623121: 9.039
Probe ILMN_1220101
  AVG expression EBI2: 11.29
Probe ILMN_1220236
  AVG expression CTSG: 7.594
Probe ILMN_1220397
  AVG expression TTC28: 7.127
Probe ILMN_1220788
  AVG expression GM590: 8.022
Probe ILMN_1221048
  AVG expression PSAT1: 10.49
Probe ILMN_1221311
  AVG expression TTYH3: 7.858
Probe ILMN_1221516
  AVG expression LOC100048841: 7.303
Probe ILMN_1221530
  AVG expression ADCY7: 8.272
Probe ILMN_1221700
  AVG expression ELA2: 6.367
Probe ILMN_1221819
  AVG expression FCGRT: 8.525
Probe ILMN_1221820
  AVG expression FAIM3: 13.69
Probe ILMN_1222036
  AVG expression PAQR7: 6.448
Probe ILMN_1222543
  AVG expression UGT1A10: 6.383
Probe ILMN_1222821
  AVG expression ROGDI: 8.291
Probe ILMN_1223600
  AVG expression INDO: 7.297
Probe ILMN_1224116
  AVG expression SMPDL3A: 7.588
Probe ILMN_1224336
  AVG expression SPSB1: 8.95
Probe ILMN_1224473
  AVG expression LOC380797: 8.096
Probe ILMN_1224945
  AVG expression E130113K22RIK: 7.685
Probe ILMN_1225085
  AVG expression PRKCB: 11.14
Probe ILMN_1225132
  AVG expression 4930519L02RIK: 7.525
Probe ILMN_1225214
  AVG expression CDKN2D: 8.24
Probe ILMN_1225730
  AVG expression FDPS: 12.65
Probe ILMN_1225764
  AVG expression MFSD2: 8.49
Probe ILMN_1226514
  AVG expression GAB3: 7.563
Probe ILMN_1226755
  AVG expression E030007N04RIK: 8.626
Probe ILMN_1226901
  AVG expression MAN2A2: 6.871
Probe ILMN_1227277
  AVG expression D9ERTD392E: 9.413
Probe ILMN_1227434
  AVG expression ITGB7: 9.885
Probe ILMN_1227570
  AVG expression LOC386545: 8.23
Probe ILMN_1227900
  AVG expression IL12RB1: 8.071
Probe ILMN_1227907
  AVG expression GMFG: 10.95
Probe ILMN_1228213
  AVG expression IFI30: 12.19
Probe ILMN_1228804
  AVG expression A430106G13RIK: 6.595
Probe ILMN_1228832
  AVG expression NGP: 8.125
Probe ILMN_1228917
  AVG expression C330023M02RIK: 9.763
